Common to all, as to format: functional
In one experiment the test system is Vero. In words: inhibition of WNV-induced cytopathic effect – cell-based, CPE readout (AID 1621). Particulars: Chlorocebus sabaeus. For orientation: Cytopathic effects are the visible damage that an infection or toxin causes in cultured cells.
Experiment [1] concerns the target T1, High affinity choline transporter 1 (Homo sapiens, UniProt Q9GZV3).
T1 sequence (Q9GZV3 whole entry): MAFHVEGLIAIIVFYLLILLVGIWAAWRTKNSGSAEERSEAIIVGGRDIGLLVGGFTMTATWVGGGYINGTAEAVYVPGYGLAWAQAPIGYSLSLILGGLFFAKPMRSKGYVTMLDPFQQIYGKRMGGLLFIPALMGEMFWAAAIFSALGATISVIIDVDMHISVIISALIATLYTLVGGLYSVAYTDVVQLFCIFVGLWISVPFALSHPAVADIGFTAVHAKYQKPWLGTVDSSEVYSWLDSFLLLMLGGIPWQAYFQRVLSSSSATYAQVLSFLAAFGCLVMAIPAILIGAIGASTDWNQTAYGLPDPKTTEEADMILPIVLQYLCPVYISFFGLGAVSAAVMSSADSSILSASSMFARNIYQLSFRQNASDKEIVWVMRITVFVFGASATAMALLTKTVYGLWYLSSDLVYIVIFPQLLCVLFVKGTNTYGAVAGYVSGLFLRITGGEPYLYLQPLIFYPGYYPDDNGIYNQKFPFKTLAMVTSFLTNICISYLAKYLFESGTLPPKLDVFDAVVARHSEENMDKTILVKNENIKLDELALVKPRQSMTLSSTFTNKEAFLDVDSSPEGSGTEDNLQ
As to the kind of experiment: human choline transporter blockers, potency – cell-based, 5-point CRC, membrane potential dye, dose response (AID 504840).

Experiment [2] addresses T1, High affinity choline transporter 1. As to the kind of experiment: human choline transporter blockers, potency – cell-based, 10-point CRC, membrane potential dye, dose response (AID 588401).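 Also: membrane potential dye fluorescence of choline-evoked depolarization via CHT.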
Experiment [3] is described as follows: viability loss in HeLa cells – cytotoxicity control for MgcRacGAP inhibitor project, dose response (AID 624300).
Experiment [4] addresses T2, Rac GTPase-activating protein 1 (Homo sapiens, UniProt Q9H0H5).
T2 sequence (Q9H0H5 whole entry): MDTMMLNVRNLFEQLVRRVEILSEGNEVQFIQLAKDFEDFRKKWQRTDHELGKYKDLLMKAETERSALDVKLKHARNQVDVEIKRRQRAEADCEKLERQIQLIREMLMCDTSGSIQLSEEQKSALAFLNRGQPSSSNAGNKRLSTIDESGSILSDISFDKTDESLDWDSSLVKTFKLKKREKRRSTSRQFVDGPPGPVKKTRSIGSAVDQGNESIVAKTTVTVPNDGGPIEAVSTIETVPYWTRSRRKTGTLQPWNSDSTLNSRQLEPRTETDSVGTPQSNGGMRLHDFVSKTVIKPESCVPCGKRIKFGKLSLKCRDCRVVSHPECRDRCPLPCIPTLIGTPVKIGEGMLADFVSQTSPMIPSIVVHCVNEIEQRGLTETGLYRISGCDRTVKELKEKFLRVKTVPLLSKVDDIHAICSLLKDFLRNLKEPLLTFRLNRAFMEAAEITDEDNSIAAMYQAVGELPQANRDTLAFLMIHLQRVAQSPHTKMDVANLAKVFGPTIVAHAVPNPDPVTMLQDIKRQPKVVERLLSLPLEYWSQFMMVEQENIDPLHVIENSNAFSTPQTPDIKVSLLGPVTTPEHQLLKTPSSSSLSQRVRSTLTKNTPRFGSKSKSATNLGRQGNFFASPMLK
In words: blockers of MgcRacGAP-driven Rac1 GTP hydrolysis – biochemical, ADP Hunter fluorescence, primary and confirmatory, confirmation (AID 624330).

The nature of experiment [5]: SAR analysis of small molecule activators of Apaf-1 using a LZ-Caspase-9/Caspase-3 Fluorescent Selectivity assay - Set 2. Particulars: read-out: EC50_Mean.
The target of experiment [6] is T3, Apoptotic protease-activating factor 1 (Homo sapiens, UniProt O14727).
T3 sequence (O14727 whole entry): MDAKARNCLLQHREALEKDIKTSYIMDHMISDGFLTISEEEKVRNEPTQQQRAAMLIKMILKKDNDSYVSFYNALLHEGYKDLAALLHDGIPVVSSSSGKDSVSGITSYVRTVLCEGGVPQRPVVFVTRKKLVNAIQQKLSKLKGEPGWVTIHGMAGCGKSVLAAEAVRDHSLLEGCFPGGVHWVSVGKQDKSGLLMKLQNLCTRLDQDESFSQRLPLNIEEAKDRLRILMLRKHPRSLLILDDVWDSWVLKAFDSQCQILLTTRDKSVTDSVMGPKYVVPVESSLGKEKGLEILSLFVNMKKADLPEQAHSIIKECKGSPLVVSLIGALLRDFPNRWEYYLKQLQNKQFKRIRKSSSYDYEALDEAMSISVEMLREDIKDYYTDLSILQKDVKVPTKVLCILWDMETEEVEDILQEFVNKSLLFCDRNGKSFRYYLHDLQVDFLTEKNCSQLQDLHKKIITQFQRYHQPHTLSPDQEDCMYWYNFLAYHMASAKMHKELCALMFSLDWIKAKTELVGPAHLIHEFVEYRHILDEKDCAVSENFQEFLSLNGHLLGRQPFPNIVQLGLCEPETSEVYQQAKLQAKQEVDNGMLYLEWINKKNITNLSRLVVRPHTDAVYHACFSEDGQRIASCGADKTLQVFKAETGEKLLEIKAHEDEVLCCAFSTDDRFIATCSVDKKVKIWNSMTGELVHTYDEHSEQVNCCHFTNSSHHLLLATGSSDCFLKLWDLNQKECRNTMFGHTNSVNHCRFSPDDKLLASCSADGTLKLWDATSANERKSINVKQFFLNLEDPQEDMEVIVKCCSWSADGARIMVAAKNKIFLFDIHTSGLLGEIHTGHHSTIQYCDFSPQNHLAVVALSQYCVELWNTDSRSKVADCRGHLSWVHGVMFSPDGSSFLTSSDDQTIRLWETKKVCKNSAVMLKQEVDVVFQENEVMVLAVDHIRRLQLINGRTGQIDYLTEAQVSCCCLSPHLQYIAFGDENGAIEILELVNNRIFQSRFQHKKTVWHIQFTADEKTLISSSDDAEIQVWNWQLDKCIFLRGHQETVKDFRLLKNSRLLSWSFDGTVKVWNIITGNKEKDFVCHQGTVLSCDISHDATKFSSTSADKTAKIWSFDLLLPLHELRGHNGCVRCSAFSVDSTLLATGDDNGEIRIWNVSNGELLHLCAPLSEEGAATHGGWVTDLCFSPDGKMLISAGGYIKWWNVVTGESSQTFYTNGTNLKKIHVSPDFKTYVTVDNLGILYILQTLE
As to the kind of experiment: SAR analysis of small molecule Activators of Apaf-1 in a Fluorescent assay - set 2. The note with it: read-out: EC50_Mean.

SMILES strings stand for the structures. Active and inactive are the calls of the source. Where only a bound is given, the exact number is not on record here.

Broadly, the IC50 is the point on the concentration scale where inhibition reaches its midpoint. For orientation: CC50 means the concentration at which the toxic effect on the cells reaches its halfway point. Regarding `CCN(CC)CCCC(C)NC(=O)c1c(NC(=O)c2ccccc2)sc2c1CCCC2` (configuration not stated), the IC50 was 21.4 µM (active) in the experiment on Vero, 2.41 µM (active) in experiment [1], 3.36 µM (active) in experiment [2] and 144 µM (active) in experiment [4]. In addition, the half-maximal cytotoxic concentration (CC50) in experiment [3] is 100 µM (active).
For the compound `COc1ccccc1C1=NOC(C(=O)O)C1` (configuration not stated), the EC50 in experiment [5] and in experiment [6] was > 100 µM (inactive) each time.

Values taken from ChEMBL document CHEMBL1201862, “PubChem BioAssay data set” (2004).
